From US20250179029A1, “DEUTERATED RETINOIDAL COMPOUNDS AND SYNTHESIS AND USES THEREOF” (UNIVERSITY OF MARYLAND, BALTIMORE, priority 2022, published 2025)
Read-outs that look alike come from different tables or passages of the source.

Legend:
[1] = Plasma pharmacokinetics after single oral dose in female CD-1 mice; assay type: in vivo; settings: for AUC(0-inf) / MRT (mean residence time) / T1/2 (elimination half-life) / Tmax / Cmax / overall Rank by Total Score: single p.o. dose 10 mg/kg, female CD-1 mice; for AUC(0-inf) / MRT (mean residence time) / T1/2 (elimination half-life) / Tmax / Cmax: plasma; for Cmax: mean of three mice; for clearance from systemic circulation (plasma concentration versus time profile) / systemic exposure: single PO dosing, mice, FIGS. 12A-12C
Method: The PK study was performed by the Certified Research Organization (CRO), Aragen Life Sciences Private Limited (Aragen), Hyderabad, India. All procedures of the present study were in accordance with the guidelines provided by the Committee for the Purpose of Control and Supervision of Experiments on Animals (CPCSEA) as published in The Gazette of India, Jan. 7, 2010. CPCSEA renewal number for institute is 1125/PO/Rc/S/CPCSEA on 13Feb. 2014. Institutional Animal Ethics Committee (IAEC) approval has been taken to initiate the study (IAEC Approval Number: B-011A). The details are presented in the Supplementary Materials.
To minimize the number of mice used in the PK study using a validated LC/MS/MS analysis, both individual (discrete) (set #1: Compound 5, EM=463.2937 and set #2: […], EM=463.2937) and cassette (set #3: Compounds 2, 3, and 7; EMs=459.2686, 462.2874 and 466.3125, respectively, and set #4: Compounds 4, 8, and 9; EMs=460.2749, 464.2999 and 467.3188, respectively) dosing were used.^59,66 The four sets studied were dictated by the exact molecular masses of the compounds as indicated above and in FIG. 3.
The plasma PK profiles were obtained after single oral (PO) dosing of the compounds in mice.
In Table 2, data are presented as the mean of values obtained from three female CD-1 mice. Cmax is the maximum observed plasma concentration. Tmax is the time to maximum concentration. T1/2 is the elimination half-life. AUC represents AUC (0-∞), which is the area under the concentration-time curve from time of dosing extrapolated to infinity. MRT refers to mean residence time. The number in parentheses indicate the rank order from best (1) to worst (8).

[2] = test system: MCF7; assay: MTT antiproliferative assay, MCF7 non-TNBC cells; assay type: cell-based; settings: Homo sapiens, mean of three independent experiments
Method: (§1) Compounds 2, 4, 8 and 9, as well as paclitaxel (PTX) were evaluated over a range of concentrations to examine their antiproliferative activities against two non-TNBC cell lines, MCF7 and SKBR3using the well-established 3-(4,5-dimethylthiazolyl-2)-2,5-diphenyl tetrazolium bromide (MTT) assay.^48,55,56 The parent non-deuterated VNLG-152R (Compound 2) was used as the positive control.
(§2) As presented in Table 1 below, the GI50 values of the deuterated Compounds 4, 8 and 9 against the MCF7 cell are identical to the GI50 value of the parent protio VNLG-152R (Compound 2). In contrast, the SKBR3 cell appears to be more sensitive to the deuterated compounds compared to the parent non-deuterated VNLG-152R (Compound 2). The reason for this difference is not understood at this time. The applicant hypothesizes that the enhanced diffusion of these deuterated molecules across the cell membrane of this cell line may result in enhanced intracellular concentrations and inhibition of its proliferation. Each data point is a mean of replicates from three independent experiments.

[3] = test system: SKBR3; assay: MTT antiproliferative assay, SKBR3 non-TNBC cells; assay type: cell-based; settings: Homo sapiens, SK-BR-3, mean of three independent experiments
Method: as §1, §2

[4] = test system: MDA-MB-231 tumor xenograft; assay: Anti-tumor activity in MDA-MB-231 xenograft mouse model; assay type: in vivo; settings: 20 mg/kg, PO, 5 days/week, 16 days
Method: (§3) FIGS. 13A-13D show the anti-tumor activity of VNLG-152R, Compound 4, Compound 8, and Compound 9 in xenograft mouse models. […] In FIGS. 13B and 13D, *=p<0.0001.
(§4) After confirming the improved pharmacokinetic parameters of deuterated compounds 4, 8, and 9, the anti-tumor activity of these compounds was tested in xenograft models of MDA-MB-231 and MDA-MB-468. In both models, the mice for each group were treated with either vehicle (control) or the compounds, each at 20 mg/kg, PO, 5 days/week.

[5] = test system: MDA-MB-468 tumor xenograft; assay: Anti-tumor activity in MDA-MB-468 xenograft mouse model; assay type: in vivo; settings: 20 mg/kg, PO, 5 days/week, 16 days
Method: as §3, §4

[6] = test system: androgen-sensitive and castration-resistant human prostate cancer cells; settings: androgen-sensitive and castration-resistant human prostate cancer cells in vitro; cited from earlier work

SMILES	AUC(0-inf) ([1]; mouse, po) [ng·h/mL]	MRT (mean residence time) [1] [h]	T1/2 (elimination half-life) [1] [h]	Tmax [1] [h]	Cmax [1] [ng/mL]	GI50 [2] [nM]	GI50 [3] [nM]	further results
[2H]c1nc([2H])n(C2CCC(C)(C)C(/C=C/C(C)=C/C=C/C(C)=C/C(=O)Nc3ccc(F)cc3)=C2C)c1[2H] (racemic) [Compound 3, (±) 4-(Imidazolyl-2″3″5″-D3)-4-(H)-(4′-fluoro(phenyl))-(E)-retinamide]	1740	3.57	8.39	1.33	151.17	–	–	–
[2H]C1(n2ccnc2)CCC(C)(C)C(/C=C/C(C)=C/C=C/C(C)=C/C(=O)Nc2ccc(F)cc2)=C1C (racemic) [Compound 4, (±) 4-(Imidazolyl)-4-(D)-(4′-fluoro(phenyl))-(E)-retinamide]	17600	9.06	12.05	2.50	1031.65	230 ± 250	140 ± 230	clearance from systemic circulation (plasma concentration versus time profile) [1]: could not be detected after 8 hours; systemic exposure [1]: very low systemic exposures; overall Rank by Total Score [1]: 2nd; reduction of tumor growth [4]: 95%; tumor regression [5]: 6.6%
[2H]c1nc([2H])n(C2([2H])CCC(C)(C)C(/C=C/C(C)=C/C=C/C(C)=C/C(=O)Nc3ccc(F)cc3)=C2C)c1[2H] (racemic) [Compound 5, (±) 4-(Imidazolyl-2″3″5″-D3)-4-(D)-(4′-fluoro(phenyl))-(E)-retinamide]	2700	5.49	4.27	0.67	500.72	–	–	–
[2H]c1c([2H])c(NC(=O)/C=C(C)/C=C/C=C(C)/C=C/C2=C(C)C(n3ccnc3)CCC2(C)C)c([2H])c([2H])c1F (racemic) [Compound 6, (±) 4-Imidazolyl-4(H)-(4′-fluoro(phenyl-2′3′5′6′-D4))-(E)-retinamide]	1730	4.63	4.90	–	272.72	–	–	Tmax ([1]; mouse, po, read-out: Tmax): 0.83 h
[2H]c1nc([2H])n(C2CCC(C)(C)C(/C=C/C(C)=C/C=C/C(C)=C/C(=O)Nc3c([2H])c([2H])c(F)c([2H])c3[2H])=C2C)c1[2H] (racemic) [Compound 7, (±) 4-(Imidazolyl-2″3″5″-D3)-4-(H)-(4′-fluoro(phenyl-2′3′5′6′-D4))-(E)-retinamide]	2060	2.89	4.34	0.83	454.97	–	–	–
[2H]c1c([2H])c(NC(=O)/C=C(C)/C=C/C=C(C)/C=C/C2=C(C)C([2H])(n3ccnc3)CCC2(C)C)c([2H])c([2H])c1F (racemic) [Compound 8, (±) 4-(Imidazolyl)-4-(D)-(4′-fluoro(phenyl-2′3′5′6′-D4))-(E)-retinamide]	15500	8.48	10.20	0.75	1361.22	330 ± 140	110 ± 200	clearance from systemic circulation (plasma concentration versus time profile) [1]: could not be detected after 8 hours; systemic exposure [1]: very low systemic exposures; overall Rank by Total Score [1]: 3rd; reduction of tumor growth [4]: 95%; reduction of tumor growth [5]: 93%
[2H]c1nc([2H])n(C2([2H])CCC(C)(C)C(/C=C/C(C)=C/C=C/C(C)=C/C(=O)Nc3c([2H])c([2H])c(F)c([2H])c3[2H])=C2C)c1[2H] (racemic) [Compound 9, (±) 4-(Imidazolyl-2″3″5″-D3)-4-(D)-(4′-fluoro(phenyl-2′3′5′6′-D4))-(E)-retinamide]	22600	8.92	10.28	2.67	1615.81	220 ± 130	100 ± 140	tumor regression [4]: 67%; tumor regression [5]: 37%
CC1=C(/C=C/C(C)=C/C=C/C(C)=C/C(=O)Nc2ccc(F)cc2)C(C)(C)CCC1=O [Compound 16, 4-Oxo-(4′-fluoro(phenyl))-(E)-retinamide]	–	9.06	12.05	–	–	–	–	–
CC(=O)O[C@H]1C(=O)[C@@]2(C)[C@H]([C@H](OC(=O)c3ccccc3)[C@]3(O)C[C@H](OC(=O)[C@H](O)[C@@H](NC(=O)c4ccccc4)c4ccccc4)C(C)=C1C3(C)C)[C@]1(OC(C)=O)CO[C@@H]1C[C@@H]2O [Paclitaxel, paclitaxel, reference compound]	–	–	–	–	–	60 ± 120	60 ± 120	–
CC1=C(/C=C/C(C)=C/C=C/C(C)=C/C(=O)Nc2ccccc2O)C(C)(C)CCC1n1ccnc1 (centres unmarked) [VNLG-147, (2E,4E,6E,8E)-N-(2-hydroxyphenyl)-9-(3-imidazolyl-2,6,6-trimethylcyclohex-1-enyl)-3,7-dimethylnona-2,4,6,8-tetraenamide]	–	–	–	–	–	–	–	anti-proliferative and anti-metastatic activities [6]: potent
CC1=C(/C=C/C(C)=C/C=C/C(C)=C/C(=O)Nc2ccccc2)C(C)(C)CCC1n1ccnc1 (centres unmarked) [VNLG-153, (2E,4E,6E,8E)-9-(3-imidazolyl-2,6,6-trimethylcyclohex-1-enyl)-3,7-dimethyl-N-phenylnona-2,4,6,8-tetraenamide]	–	–	–	–	–	–	–	anti-proliferative and anti-metastatic activities [6]: potent
